# Columns and labels:
# U-937 cells [1] = assay: Annexin V/PI cell viability analysis; conditions: U-937 cells; 10 μM; time course AV/PI, based on data in FIG. 1F
# SKW 6.4 cells = assay: Immunoblotting of caspase activation; type: cell-based, Human; conditions: 10 μM
# Protocol: U-937 cells (3×10^6 cells in 2 mL RPMI) or SKW 6.4 cells (5×10^6 cells in 2 mL RPMI) were treated with compound (1% final DMSO v/v) for the appropriate period of time. After centrifugation and washing with PBS, cells were lysed with RIPA lysis buffer containing protease cocktail inhibitor III (Calbiochem) and cell debris removed by centrifugation (16000×g 5 min). The lysate concentrations were normalized after determination of protein concentration by the Bradford assay and whole cell lysate (40-60 μg) was resolved by 4-20% gradient SDS-PAGE gel electrophoresis at 120 V for 70 min after which proteins were transferred onto PVDF membranes (60 V for 2 hours) and blocked in 5% BSA or fat-free milk in TBST (as per primary antibody manufacturer's instructions) overnight at 4° C. The membranes were blotted for molecules of interest with primary antibody (1:1000 in 5% BSA or milk in TBST) overnight at 4° C. The bound primary antibodies were detected using appropriate secondary HRP conjugated antibodies (1:5000 in TBST) for 1 hour at room temperature and visualized by ECL autoradiography or with an Image Quant LAS 4010. The membranes were stripped in acidic methanol, blocked and re-probed as necessary.
# HFF-1 = assay: Raptinal toxicity in various cell lines, 24 hour IC50; type: cell-based; conditions: HFF-1 (Human Foreskin Fibroblast); 24 hour incubation; mean ± SD
# in vitro = conditions: human, U-937 cells
# U-937 cells [2] = assay: Cell morphology by light, scanning electron and transmission electron microscopy; type: cell-based, Human; conditions: 10 μM
# Protocol: Cell Morphology by Light Microscopy.
# Phase contrast images of U-937 cells treated with 10 μM Raptinal were taken with an Olympus DP-21 microscope digital camera. The cells were kept warm between images by returning the plate to the 37° C. incubator.
# Scanning Electron Microscopy.
# U-937 cells (4×10^6 cells in 8 mL 0.45 micron-filtered cell culture media) were treated with 1% DMSO) or 10 μM Raptinal in 10 cm culture dishes for 60 minutes. The cells were centrifuged (250×g, 5 min) and the media aspirated. Ice-cold Karnovsky's fixative (1 mL of 0.45 micron filtered) was added to the cell pellet which was resuspended by gently agitation. The cells were fixed overnight at 4° C. and submitted for scanning electron microscopy (SEM) sample processing. The cells were stained with OsO4, placed on filter paper and dehydrated. After mounting, the cells were coated with Pd/Au and scanning electron microscopy was performed.
# Transmission Electron Microscopy.
# U-937 cells (4 mL of 5×10^5 cells/ml) were treated with DMSO or 10 μM of Raptinal for 5, 30, and 60 minutes. The cells were centrifuged 400×g for 5 min and the media aspirated. The cells were fixed by the addition of Karnovsky's fixing solution (0.5 mL) and placed in a 4° C. fridge overnight. The next day, the cells were microwave fixed, stained with 2% OsO4, washed with 3% KCN and enbloc stained with uranyl acetate. The samples were dehydrated with acetonitrile and ethanol, suspended in pure epoxy, and embedded overnight at 85° C. The embedded samples were cut into thick and then thin sections and these were mounted and viewed.
# [3] = test system: cancer cell lines (HL-60, SK-MEL-5, U-937); assay: Initial screens against cancer cell lines; type: cell-based, Human
# HL-60 cells = assay: High-throughput cell death screen (MTS); type: cell-based, human; conditions: 1 μM, 24 hours
# Protocol: High-Throughput Cell Death Screen.
# HL-60 cells were plated into 384 well plates (50 μL of 2×10^6 cells/mL per well) in RPMI cell culture media. Library compounds were transferred using a 384-pin transfer apparatus (V & P Scientific, San Diego) which transferred 0.1 μL from 10 mM DMSO stock solutions to achieve a final concentration of 20 μM. Controls containing DMSO only and 10 μM etoposide were used to serve as live and dead controls respectively. The cells were incubated for 24 hours.
# [4] = type: in vivo, C57BL/6 mice; conditions: mice; single-dose intravenous 15-60 mg/kg
# Protocol: Pharmacokinetics and Toxicity Profiling in Mice.
# All animal studies were performed with prior approval by the University of Illinois at Urbana-Champaign IACUC committee. Eight week old female C57BL/6 mice were used for all pharmacokinetic and toxicity experiments. […]. For toxicity assessment, Raptinal was administered intravenously as a single-dose injection across a dose range of 15-60 mg/kg, and mice were sacrificed 7 days post-injection for evidence of hematologic toxicity (n=3 mice/group).
smiles,measurement,setting,value
"O=CC1(C2(C=O)c3ccccc3-c3ccccc32)c2ccccc2-c2ccccc21 [Raptinal, [9,9′]bifluorenyl-9,9′-dicarbaldehyde]",Time to 50% death,U-937 cells [1],1.5 h
same,time of activation of initiator caspase-9,SKW 6.4 cells,20 min
same,"time to complete cleavage of procaspase-9, procaspase-8 and procaspase-3",SKW 6.4 cells,≤ 45 min
same,procaspase-3 activation (immunoblot),SKW 6.4 cells; one hour of exposure,the only agent capable of inducing procaspase-3 activation
same,IC50,HFF-1,3300 ± 200 nM
same,"cytotoxicity at 2 h, 10 µM",in vitro,~80%
same,mitochondrial morphology (transmission electron microscopy),U-937 cells [2]; after 5 minutes,substantial mitochondrial swelling
same,blebbing,U-937 cells [2]; at 30 min,modest
same,blebbing,U-937 cells [2]; at 60 min,extensive
same,IC50,"[3]; Homo sapiens, HL-60, SK-MEL-5, U-937, 24 hour assays",150 to 700 nM
same,cell death after short treatment and washout,"[3]; cancer cells treated 1 hour, extensive washing to remove compound, read at 24-hour mark",significant cell death
same,cell death in retest of screen hits,HL-60 cells,quantitative cell death
same,tolerability,[4],well tolerated
